Data from paper PMC6675120, “Potent and selective inhibitors for M32 metallocarboxypeptidases identified from high-throughput screening of anti-kinetoplastid chemical boxes” (PLoS Neglected Tropical Diseases, 2019).

Key:
[1] = molecular target: TbMCP-1 (Trypanosoma brucei, UniProt Q386R0); assay: Continuous fluorogenic (FRET) TbMCP-1 assay with Abz-RFFK(Dnp)-OH, primary and secondary screening; assay type: biochemical; conditions: for TbMCP-1 2º/1º ratio: secondary (31,5 µM) / primary (25 µM) inhibition; for TbMCP-1 Primary screening Inhibition (%): single inhibitor concentration 25 µM; for TbMCP-1 Secondary screening Inhibition (%): single inhibitor concentration 31,5 µM; for TbMCP-1 Hill Slope: four-parameter Hill fit of dose-response curve
Method: (§1) TcMCP-1 (MEROPS ID: M32.003) and TbMCP-1 were expressed as GST fusion proteins in E. coli BL21 (DE3) Codon Plus and purified as previously described.
(§2) TbMCP-1 and TcMCP-1 activities were assayed fluorometrically with Abz-RFFK(Dnp)-OH and Abz-LKFK(Dnp)-OH substrates, respectively, in 100 mM MOPS pH 7,2 containing 0,01% Triton X-100. Assays were performed in solid black 384-well plates (final reaction volume ~80 μL) and the hydrolysis of the K(Dnp)-OH group was monitored continuously at 30 °C with a Beckman Coulter DTX 880 Multimode Reader (Radnor, Pennsylvania, USA) using standard 320 nm excitation and 420 nm emission filter set.
(§3) In all cases, EDTA (final concentration 31,25 mM) was used as positive inhibition control.
(§4) Then, 40 μL of 100 mM MOPS, 0,01% Triton X-100 pH 7,2 containing TbMCP-1 (2,50 nM) or TcMCP-1 (0,34 nM) were added to each well, plates were homogenized (30 seg, orbital, medium intensity) and each well subjected to a single autofluorescence read (ex/em = 320/420 nm). Plates were incubated in darkness for 15 min at 30 °C and then 40 μL of Abz-RFFK(Dnp)-OH (4 μM) or Abz-LKFK(Dnp)-OH (0,8 μM) in assay buffer were added to each well to start the reaction. After homogenization (30 seg, orbital, medium intensity), the fluorescence of the Abz group (ortho-aminobenzoic acid) (ex/em = 320/420 nm) was acquired kinetically for each well (8 read cycles, one cycle every 300 seconds). Considering our previous experiences, the auto-fluorescent cut-off was arbitrarily set at 2x10^5 RFU to discard highly interfering compounds. All compounds were assayed in singlet (without replicates) due to the limited availability of stocks.
(§5) Raw screening measurements were used to determine the slope (dF/dt) of progression curves by linear regression for control and non-interfering compound wells. In the case of control-dependent hit selection criteria, percent inhibition percentage (%Inh) was calculated for each compound according to the following equation: Inh=100∙[1−(dF/dt^WELL−μ^C−)/(μ^C+−μ^C−)] (1) where dF/dt^WELL represents the slope of each compound well and μ^C+ and μ^C− the average of MCP (no-inhibition) and substrate (no-enzyme) controls, respectively.
(§6) To avoid any positional and/or association bias, we randomly defined the row position for each compound. One μL of compounds stock (10 mM in DMSO) and EDTA (31,25 mM) were added to the first well of column 1, followed by addition of 40 μL of 100 mM MOPS, 0,01% Triton X-100 pH 7,2 buffer. After addition of 20 μL of the same buffer to subsequent wells of the plate, 22 serial 2-fold dilutions were made horizontally. The last two positions of every row were used, alternatively, for C^+ and C^− controls to reduce any positional and/or association bias. Then, 20 μL of activity buffer containing TbMCP-1 or TcMCP-1 were added to each well, except for those corresponding to C^−; completed with 20 μL of activity buffer. After homogenization, 15 minutes of incubation at 30°C and autofluorescence measurement, the substrate (in activity buffer) was added to the previous mix. Data collection and processing were performed exactly as described above. Percentage of M32 MCPs residual activity was calculated for each condition according to the following equation: %Res.Act^MCP=100∙[(dF/dt^WELL−μ^C−)/(μ^C+−μ^C−)] (2) where dF/dt^WELL represents the slope of each compound well and μ^C+ and μ^C− the average of MCP (no-inhibition) and substrate (no-enzyme) controls, respectively.

[2] = molecular target: TcMCP-1 (Trypanosoma cruzi, UniProt Q6ZXC0); assay: Continuous fluorogenic (FRET) TcMCP-1 assay with Abz-LKFK(Dnp)-OH, primary and secondary screening; assay type: biochemical; conditions: for TcMCP-1 Hill Slope: four-parameter Hill fit of dose-response curve; for TcMCP-1 2º/1º ratio: secondary (31,5 µM) / primary (25 µM) inhibition; for TcMCP-1 Primary screening Inhibition (%): single inhibitor concentration 25 µM; for TcMCP-1 Secondary screening Inhibition (%): single inhibitor concentration 31,5 µM
Method: as §1, §2, §3, §4, §5
as §6, with “Compounds selected from primary screening were re-tested in a dose-response manner (final concentration ranging from […] to 62,5 μM) using identical assay conditions. To” for “To”

Sequence of TbMCP-1 (Q386R0 entry or part of it): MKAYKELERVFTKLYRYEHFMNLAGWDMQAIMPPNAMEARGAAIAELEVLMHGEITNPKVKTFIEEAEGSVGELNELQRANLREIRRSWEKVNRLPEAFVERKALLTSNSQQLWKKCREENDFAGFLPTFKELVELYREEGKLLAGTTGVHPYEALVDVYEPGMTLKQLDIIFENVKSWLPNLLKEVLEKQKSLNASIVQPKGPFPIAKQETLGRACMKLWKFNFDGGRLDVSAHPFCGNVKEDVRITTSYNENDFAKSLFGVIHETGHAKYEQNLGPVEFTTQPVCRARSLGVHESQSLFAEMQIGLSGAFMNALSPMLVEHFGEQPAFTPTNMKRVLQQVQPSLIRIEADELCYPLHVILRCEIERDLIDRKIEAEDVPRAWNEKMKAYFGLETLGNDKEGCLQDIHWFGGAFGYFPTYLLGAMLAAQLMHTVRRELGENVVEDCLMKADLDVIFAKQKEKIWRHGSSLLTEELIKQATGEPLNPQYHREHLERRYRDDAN
Sequence of TcMCP-1 (Q6ZXC0 entry or part of it): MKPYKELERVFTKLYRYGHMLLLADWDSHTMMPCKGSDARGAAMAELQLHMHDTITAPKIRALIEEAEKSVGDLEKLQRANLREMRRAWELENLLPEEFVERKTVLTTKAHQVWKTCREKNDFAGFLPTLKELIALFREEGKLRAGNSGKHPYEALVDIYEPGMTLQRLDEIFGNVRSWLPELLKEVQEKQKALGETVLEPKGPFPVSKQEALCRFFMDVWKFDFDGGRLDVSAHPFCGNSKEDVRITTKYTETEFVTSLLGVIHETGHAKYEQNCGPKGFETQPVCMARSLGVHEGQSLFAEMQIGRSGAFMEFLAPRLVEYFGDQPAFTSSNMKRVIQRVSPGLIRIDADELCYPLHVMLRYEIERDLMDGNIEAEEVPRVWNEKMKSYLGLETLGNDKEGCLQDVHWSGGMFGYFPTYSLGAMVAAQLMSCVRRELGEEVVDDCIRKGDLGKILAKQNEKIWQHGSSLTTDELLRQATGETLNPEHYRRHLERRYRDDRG

Compound | TbMCP-1 2º/1º ratio [1] | TbMCP-1 Primary screening Inhibition (%) [1] | TbMCP-1 Secondary screening Inhibition (%) [1] | IC50 [1] | TbMCP-1 Hill Slope [1] | IC50 [2] | TcMCP-1 Hill Slope [2] | TcMCP-1 2º/1º ratio [2] | TcMCP-1 Primary screening Inhibition (%) [2] | TcMCP-1 Secondary screening Inhibition (%) [2]
Cc1c([N+](=O)[O-])c(C(=O)Nc2sc3c(c2C#N)CCC(C)C3)nn1C (stereo not shown) [TCMDC-143155] | 0,23 | 44,57% | 10,36% | – | – | – | – | – | – | –
CCC1Oc2cc(S(=O)(=O)N(C)CC(=O)N3CCc4ccccc4C3)c(C)cc2NC1=O (stereo not shown) [TCMDC-143332] | 1,03 | 55,90% | 57,63% | 23.3 µM | -1,063 | – | – | – | – | –
COc1ccc(S(=O)(=O)Nc2ccc(CN3CCN(C(=O)c4cccc(C#N)c4)CC3)cc2)cc1.O=C(O)C(F)(F)F [TCMDC-143496] | – | – | – | – | – | 34.9 µM | -0,822 | 1,09 | 41,52% | 45,37%
CC(C)Oc1ccc(C(=O)Nc2ccc(N3CCOCC3)c(Cl)c2)cc1 [TCMDC-143592] | – | – | – | – | – | 27.9 µM | -0,8919 | 1,03 | 56,55% | 58,11%
CC(Cn1ccnc1)NC(=O)COc1ccc(Cl)c(Cl)c1 (stereo not shown) [TCMDC-143479] | – | – | – | – | – | – | – | 0,31 | 42,39% | 13,15%
O=C(c1cc2cc(Cl)ccc2[nH]1)N1CCCCC1c1cccnc1 (stereo not shown) [TCMDC-143159] | 0,25 | 52,96% | 13,07% | – | – | – | – | – | – | –
CC(C)N(C(=O)CN1C(=O)C(N)C(=O)N(c2ccccc2)c2ccccc21)c1ccccc1 (stereo not shown) [TCMDC-143071] | – | – | – | – | – | 38.9 µM | -1,235 | 0,63 | 45,44% | 28,65%
CC(C)Oc1cccc(N2CCC(C(=O)N3CCCN(C(C)C)CC3)CC2)c1.Cl [TCMDC-143432] | – | – | – | – | – | 26.3 µM | -0,6129 | 1,27 | 42,37% | 53,96%
O=C(NNC(=O)c1ccccn1)c1ccc(-c2ccccc2)cc1 [TCMDC-143263] | – | – | – | – | – | 40.7 µM | -0,9946 | 0,31 | 48,44% | 14,84%
Cn1ccnc1CN1CCc2[nH]cnc2C1c1ccccc1OCc1ccccc1 (stereo not shown) [TCMDC-143242] | – | – | – | – | – | 26.5 µM | -1,237 | 1,02 | 51,89% | 52,68%
N#Cc1cc([N+](=O)[O-])ccc1NC1CCCCCC1 [TCMDC-143143] | 1,61 | 41,27% | 66,27% | 21.8 µM | -1,466 | – | – | – | – | –
Cl.Cl.O=c1cc(NCCCNCc2cc(C(F)(F)F)cs2)[nH]c2ccccc12 [TCMDC-143645] | 1,27 | 42,78% | 54,13% | 20.8 µM | -1,127 | – | – | – | – | –
CN(C)c1ccc(-c2cc3nccnc3c(OC[C@H]3CCCNC3)n2)cn1.Cl [TCMDC-143408] | – | – | – | – | – | 32.9 µM | -1,153 | 1,06 | 46,88% | 49,75%
CN(C)S(=O)(=O)c1ccc(Cl)c(C(=O)Nc2nc(-c3ccccn3)cs2)c1 [TCMDC-143265] | 0,40 | 59,46% | 23,62% | 44.2 µM | -2,036 | – | – | – | – | –
O=C(NCC1CCCCC1)c1cc(=O)c2ccccc2o1 [TCMDC-123621] | -0,05 | 44,99% | -2,11% | – | – | – | – | – | – | –
Cl.Cl.O=c1ccc2ccc(F)c3c2n1C[C@H]3CN1CCN(CC(O)c2cc3c(cn2)OCS3)CC1 (stereo partly shown) [TCMDC-143158] | 1,19 | 44,84% | 53,51% | 27.6 µM | -1,014 | – | – | – | – | –
O=C(N[C@H](CO)c1ccccc1)c1ccc(-c2c[nH]c3nccc(C(F)(F)F)c23)s1 [TCMDC-143254] | 0,78 | 45,94% | 35,87% | 43.4 µM | -0,8163 | – | – | – | – | –
Cc1cc(C#N)c([N+](=O)[O-])cc1Br [TCMDC-143541] | 0,20 | 44,26% | 8,89% | – | – | – | – | – | – | –
Cc1c(Nc2cc(C3CC3)n[nH]2)ccc(C#N)c1Cl.O=C(O)C(F)(F)F [TCMDC-143454] | 0,63 | 52,66% | 33,23% | > 60 µM | – | – | – | – | – | –
Cc1ccc2c(c1)-c1onc(C(=O)N3CCCCC3c3cccnc3)c1CO2 (stereo not shown) [TCMDC-143191] | 0,78 | 88,97% | 69,40% | 16.1 µM | -1,267 | – | – | – | – | –
COc1cccc(S(=O)(=O)Nc2ccc3c(c2)CC(N2CCC(NC(=O)C4CC4)CC2)C3)c1 (stereo not shown) [TCMDC-143583] | – | – | – | – | – | – | – | -0,15 | 77,30% | -11,25%
COc1cccc(-c2cc(C(F)(F)F)nc(-n3ccc([N+](=O)[O-])n3)n2)c1 [TCMDC-143105] | – | – | – | – | – | – | – | 0,34 | 52,36% | 17,76%
CC1=C(C(=O)Nc2ccc(Cl)cc2)C(c2ccncc2)n2ncc(C(=O)Nc3ccccc3)c2N1 (stereo not shown) [TCMDC-143187] | 0,50 | 48,70% | 24,44% | > 60 µM | – | – | – | – | – | –
O=C(O)C(F)(F)F.O=C(O)C(F)(F)F.O=C1COC(c2ccccc2)(c2ccccc2)CN1C1CCN(Cc2ccc(-n3ccnc3)cc2)CC1 [TCMDC-143543] | – | – | – | – | – | > 60 µM | – | 0,72 | 43,40% | 31,11%
CC(=O)Nc1cccc(Nc2ncnc3nc[nH]c23)c1 [TCMDC-143399] | 0,19 | 43,27% | 8,15% | – | – | – | – | – | – | –
